Laboratory results from article PMC9175088 (Drug Metabolism Letters, 2021).

How the values were obtained:
[1] = Metabolism of enflicoxib and E-6132 in cryopreserved hepatocytes; details: male, Wistar, rat
[2] = as above
[3] = Secondary phase I metabolism in liver microsomes, unlabeled substrates; format: in vitro ADME; details: rat liver microsomes, positive control 10 µM; experiments with M8 as substrate
[4] = Enflicoxib metabolism in intestinal microsomes
[5] = Enflicoxib metabolism in intestinal microsomes; remark: listed apart in the source
[6] = enantiomers of enflicoxib; cited from earlier work
[7] = dog hepatocytes, positive control 10 µM

Cc1cc(=O)oc2cc(O)ccc12 [7-hydroxy-4-methylcoumarin]
half-life at 10 µM [1]: < 5.9 min | K [2, 7]: -0.0658 | half-life at 10 µM ([2]; male, beagle, dog, cryopreserved hepatocytes): 10.5 min

C[C@]12CC[C@H]3[C@@H](CCC4=CC(=O)CC[C@@]43C)[C@@H]1CC[C@@H]2O [Testosterone, testosterone]
K [3]: -0.3314 | half-life at 10 µM ([4]; male, Sprague-Dawley, rat, intestinal microsomes, pH 7.4): 133 min | K ([4]; rat intestinal microsomes, positive control 10 µM): -0.0052 | K ([5]; dog intestinal microsomes, positive control 10 µM): -0.0195 | half-life at 10 µM ([5]; male, beagle, dog, intestinal microsomes, pH 7.4): 35.5 min | K [2, 7]: -0.0914 | t1/2 [2, 7]: 7.6 min

NS(=O)(=O)c1ccc(N2N=C(C(F)(F)F)C[C@H]2c2ccc(F)cc2F)cc1 [Metabolite E-6232, (S)-(-)-enflicoxib]
Pharmacological activity of enantiomer [6]: active enantiomer

NS(=O)(=O)c1ccc(N2N=C(C(F)(F)F)C[C@@H]2c2ccc(F)cc2F)cc1 [Metabolite E-6231, (R)-(+)-enflicoxib]
Pharmacological activity of enantiomer [6]: negligible
